The nature of the data set: Particle size distribution of acetaminophen drug substance by laser-diffraction method (dry measurement). It is filed as physicochemical. The source says: The acetaminophen to be used in the present invention (also referred to as “the present acetaminophen”) has a particle size distribution in which d10 is generally 5 to 200 μm, preferably 10 to 150 μm, more preferably 12 to 100 μm, and d90 is generally 200 to 1800 μm, preferably 250 to 1600 μm, more preferably 280 to 1450 μm. Although there are some differences in the particle size distribution among lots, the unpulverized acetaminophen generally has the above-specified particle size distribution. In contrast, although there are some differences in the particle size distribution of a pulverized product of acetaminophen among the manufacturers of the drug substance and production lots, a pulverized product of acetaminophen generally has a particle size distribution in which the d10 is 3 to 10 μm and d90 is 100 to 250 μm, and therefore the particle diameters of the pulverized product of acetaminophen are smaller compared with those of the present acetaminophen. In the present invention, the particle size distribution is determined by a volume distribution evaluation employing a laser-diffraction method (Measuring Instrument: e.g., Mastersizer 2000 or Mastersizer 3000 (Malvern), Dispersion compression air pressure: 2 to 4 Bar), and the terms “d10”, “d50”, and “d90” refer to particle diameters at a volume cumulative 10% point, a volume cumulative 50% point, and a volume cumulative 90% point, respectively, as observed from the smaller diameter side in the particle size distribution. “a laser-diffraction method” is also referred to as “a laser-diffraction scattering method” Each of unpulverized products of acetaminophen (lots A to P) and pulverized products of acetaminophen (lots a to b) was subjected to a particle size distribution measurement using a particle measurement method (dry measurement) by a laser-diffraction method. As an instrument, a dry automated dispersion unit microtray (Mastersizer 2000 or Mastersizer 3000, Malvern) was used, the dispersion compression air pressure was 2 Bar or 4 Bar, and the analysis of particle size distribution was performed by a volume conversion method. […] The range of the particle size distribution in the present invention is determined with taking the above-mentioned finding into consideration. The lots of the acetaminophen drug substances shown in Table 1 are different from each other with respect to the conditions for manufacturing thereof, such as temperature and humidity. […] For example, the results of (1) to (2) of lot E and (1) to (12) of lot H in Table 1 are the results for different measurement samples of the same lots. As apparent from the results, the measurement results may vary depending on the zones of sampling even when the samples are of the same lot or depending on the types of measurement instrument to be used even when the measurement is carried out by the same method.

The mark [1] stands for this setting: Mastersizer 2000, laser diffraction, volume distribution, dry, listed as A.
The mark [2] stands for this setting: Mastersizer 2000, laser diffraction, volume distribution, dry, listed as a.
The mark [3] stands for this setting: Mastersizer 2000, laser diffraction, volume distribution, dry, listed as E.
[4] abbreviates: Mastersizer 3000, laser diffraction, volume distribution, dry.
[5] abbreviates: Mastersizer 2000, laser diffraction, volume distribution, dry, listed as J.
Where [6] appears, read: Mastersizer 2000, laser diffraction, volume distribution, dry, listed as L.
Setting [7] is: Mastersizer 2000, laser diffraction, volume distribution, dry, listed as N.
Setting [8] is: Mastersizer 2000, laser diffraction, volume distribution, dry, listed as F.
[9] abbreviates: Mastersizer 2000, laser diffraction, volume distribution, dry, listed as O.
Setting [10] is: Mastersizer 2000, laser diffraction, volume distribution, dry, listed as D.
[11] abbreviates: measurement instrument printed as dash, listed as d.
Where [12] appears, read: Mastersizer 2000, laser diffraction, volume distribution, dry, listed as B.
[13] abbreviates: Mastersizer 2000, laser diffraction, volume distribution, dry, listed as b.
Where [14] appears, read: Mastersizer 2000, laser diffraction, volume distribution, dry, listed as M.
Setting [15] is: Mastersizer 2000, laser diffraction, volume distribution, dry, listed as K.
The mark [16] stands for this setting: Mastersizer 2000, laser diffraction, volume distribution, dry, listed as C.
Where [17] appears, read: measurement instrument printed as dash, listed as c.
Setting [18] is: Mastersizer 2000, laser diffraction, volume distribution, dry, listed as P.
[19] abbreviates: Mastersizer 2000, laser diffraction, volume distribution, dry, listed as G.
Where [20] appears, read: Mastersizer 2000, laser diffraction, volume distribution, dry, listed as H.
The mark [21] stands for this setting: Mastersizer 2000, laser diffraction, volume distribution, dry, listed as I.

Structures are written as SMILES.

Regarding `CC(=O)Nc1ccc(O)cc1` [Lot A, acetaminophen], the “Particle Diameters D10” value came to 20 μm under setting [1] and 4 μm under setting [2]. In addition, the “Particle Diameters D90” value by setting is: under setting [1], 320 μm; under setting [2], 166 μm.

For the molecule `CC(=O)Nc1ccc(O)cc1` [Lot E, acetaminophen], the “Particle Diameters D10” value is 16 μm under setting [3] and 66 μm under setting [4]. For the same molecule, the “Particle Diameters D90” value is given as 361 μm under setting [3] and 1290 μm under setting [4].

Turning to `CC(=O)Nc1ccc(O)cc1` [Lot J, acetaminophen], under setting [5], the “Particle Diameters D10” value amounted to 27 μm and the “Particle Diameters D90” value is listed as 404 μm.

With `CC(=O)Nc1ccc(O)cc1` [Lot L, acetaminophen], under setting [6], the “Particle Diameters D10” value was 30 μm and the “Particle Diameters D90” value was found to be 486 μm.

For the molecule `CC(=O)Nc1ccc(O)cc1` [Lot N, acetaminophen], under setting [7], the “Particle Diameters D10” value was determined as 26 μm and the “Particle Diameters D90” value was determined as 439 μm.

In the case of `CC(=O)Nc1ccc(O)cc1` [Lot F, acetaminophen], under setting [8], the “Particle Diameters D10” value is reported as 31 μm and the “Particle Diameters D90” value turned out to be 488 μm.

Take `CC(=O)Nc1ccc(O)cc1` [Lot O, acetaminophen]: under setting [9], the “Particle Diameters D10” value is listed as 24 μm and the “Particle Diameters D90” value is on record as 387 μm.

In the case of `CC(=O)Nc1ccc(O)cc1` [Lot D, acetaminophen], under setting [10], the “Particle Diameters D10” value stood at 20 μm and the “Particle Diameters D90” value stood at 464 μm. In addition, under setting [11], the “Particle Diameters D10” value is listed as 10 μm and the “Particle Diameters D90” value amounted to 192 μm.

As for `CC(=O)Nc1ccc(O)cc1` [Lot B, acetaminophen], under setting [12], the “Particle Diameters D10” value came out at 30 μm and the “Particle Diameters D90” value stood at 551 μm. Also, under setting [13], the “Particle Diameters D10” value turned out to be 4 μm and the “Particle Diameters D90” value is given as 144 μm.

In the case of `CC(=O)Nc1ccc(O)cc1` [Lot M, acetaminophen], under setting [14], the “Particle Diameters D10” value was 27 μm and the “Particle Diameters D90” value is 419 μm.

On to `CC(=O)Nc1ccc(O)cc1` [Lot K, acetaminophen], for which, under setting [15], the “Particle Diameters D10” value was found to be 22 μm and the “Particle Diameters D90” value came to 442 μm.

Regarding `CC(=O)Nc1ccc(O)cc1` [Lot C, acetaminophen], under setting [16], the “Particle Diameters D10” value is on record as 26 μm and the “Particle Diameters D90” value came out at 419 μm. In addition, under setting [17], the “Particle Diameters D10” value amounted to 6 μm and the “Particle Diameters D90” value is 104 μm.

For the molecule `CC(=O)Nc1ccc(O)cc1` [Lot P, acetaminophen], under setting [18], the “Particle Diameters D10” value is 20 μm and the “Particle Diameters D90” value was 424 μm.

In the case of `CC(=O)Nc1ccc(O)cc1` [Lot G, acetaminophen], under setting [19], the “Particle Diameters D10” value is on record as 24 μm and the “Particle Diameters D90” value is 432 μm.

For the molecule `CC(=O)Nc1ccc(O)cc1` [Lot H, acetaminophen], under setting [20], the “Particle Diameters D10” value was 23 μm and the “Particle Diameters D90” value was determined as 429 μm.

For the molecule `CC(=O)Nc1ccc(O)cc1` [Lot I, acetaminophen], under setting [21], the “Particle Diameters D10” value was 22 μm and the “Particle Diameters D90” value came out at 433 μm.

Values taken from patent US11458102B2, “Acetaminophen preparation, and method for producing same” (NIPPON ZOKI PHARMACEUTICAL CO., LTD., priority 2017, dated 2022).
